Data reported in ChEMBL document CHEMBL3045058, “Comparative QSAR and pharmacophore modeling of substituted 2-[2-(dimethylamino) ethyl]-1, 2-dihydro-3H-dibenz[de,h]isoquinoline-1,3-diones derivatives as anti-tumor activity” (Med Chem Res, 2013).

Legend:
[1] = Cytotoxicity against human melanoma cells; assay type: functional, cell-based; conditions: Melanoma cell
[2] = Cytotoxicity against human Ovarian cancer cells; assay type: functional, cell-based; conditions: Cancer cell lines

| SMILES | pIC50 [1] | pIC50 [2] |
| --- | --- | --- |
| CN(C)CCN1C(=O)c2cccc3cc4cc(O)ccc4c(c23)C1=O | 8.34 | 7.66 |
| CC(=O)Nc1ccc2c3c4c(cccc4cc2c1)C(=O)N(CCN(C)C)C3=O | 7.22 | 7.89 |
| CN(C)CCN1C(=O)c2c(N)ccc3cc4ccccc4c(c23)C1=O | 8.02 | 7.92 |
| CN(C)CCN1C(=O)c2c(Cl)ccc3cc4ccccc4c(c23)C1=O | 6.89 | 6.75 |
| CN(C)CCN1C(=O)c2cccc3cc4ccc(N)cc4c(c23)C1=O | 7.2 | 7.7 |
| CC(=O)Nc1ccc2cc3cccc4c3c(c2c1)C(=O)N(CCN(C)C)C4=O | 7.01 | 7.31 |
| CN(C)CCN1C(=O)c2cccc3cc4c(N)cccc4c(c23)C1=O | 4.69 | 5.02 |
| CN(C)CCN1C(=O)c2cccc3cc4ccc(O)cc4c(c23)C1=O | 5.92 | 5.72 |
| CN(C)CCN1C(=O)c2cccc3cc4c(O)cccc4c(c23)C1=O | 6.57 | 6.67 |
| CN(C)CCN1C(=O)c2cccc3cc4ccc(F)cc4c(c23)C1=O | 7.8 | 8.17 |
| CN(C)CCN1C(=O)c2cccc3cc4c(I)cccc4c(c23)C1=O | 6.08 | 5.68 |
| CN(C)CCN1C(=O)c2cccc3cc4ccc(C#N)cc4c(c23)C1=O | 7.96 | 7.92 |
| CN(C)CCN1C(=O)c2cccc3cc4ccc(-c5ccccc5)cc4c(c23)C1=O | 5.73 | 6.46 |
| CN(C)CCN1C(=O)c2c(NC(=O)C(C)(C)C)ccc3cc4ccccc4c(c23)C1=O | 5.06 | 6.18 |
| CCOc1ccc2cc3cccc4c3c(c2c1)C(=O)N(CCN(C)C)C4=O | 7.12 | 7.2 |
| CN(C)CCN1C(=O)c2cccc3cc4cc(N)ccc4c(c23)C1=O | 7.35 | 7.85 |
| CN(C)CCN1C(=O)c2cccc3cc4cccc(N)c4c(c23)C1=O | 6.02 | 5.76 |
| CN(C)CCN1C(=O)c2cccc3cc4c([N+](=O)[O-])cccc4c(c23)C1=O | 7.42 | 7.3 |
| CN(C)CCN1C(=O)c2cccc3cc4cccc(Cl)c4c(c23)C1=O | 5.69 | 5.05 |
| CN(C)CCN1C(=O)c2cccc3cc4cccc([N+](=O)[O-])c4c(c23)C1=O | 7.13 | 6.65 |

| SMILES | pIC50 [1] | pIC50 [2] |
| --- | --- | --- |
| CN(C)CCN1C(=O)c2cccc3cc4ccc(Cl)cc4c(c23)C1=O | 7.19 | 7.11 |
| CN(C)CCN1C(=O)c2cccc3cc4cc(Cl)ccc4c(c23)C1=O | 7.05 | 6.64 |
| CN(C)CCN1C(=O)c2cccc3cc4ccc(I)cc4c(c23)C1=O | 6.2 | 6.75 |
| COc1cccc2c3c4c(cccc4cc12)C(=O)N(CCN(C)C)C3=O | 7.28 | 7.28 |
| CC(=O)Nc1cccc2c3c4c(cccc4cc12)C(=O)N(CCN(C)C)C3=O | 5.92 | 5.7 |
| CC(=O)Nc1ccc2cc3ccccc3c3c2c1C(=O)N(CCN(C)C)C3=O | 6.01 | 6.21 |
| CC(=O)Nc1cccc2cc3cccc4c3c(c12)C(=O)N(CCN(C)C)C4=O | 5.61 | 5.61 |
| CC(C)C(=O)Nc1ccc2cc3cccc4c3c(c2c1)C(=O)N(CCN(C)C)C4=O | 6.26 | 6.48 |
| CN(C)CCNc1ccc2cc3ccccc3c3c2c1C(=O)N(CCN(C)C)C3=O | 6.53 | 6.24 |
| CN(C)CCN1C(=O)c2cccc3cc4ccc([N+](=O)[O-])cc4c(c23)C1=O | 7.44 | 7.64 |
| CN(C)CCN1C(=O)c2cccc3cc4c(Cl)cccc4c(c23)C1=O | 7.11 | 7.41 |
| Cc1ccc2cc3ccccc3c3c2c1C(=O)N(CCN(C)C)C3=O | 6.75 | 6.91 |
| Cc1ccc2cc3cccc4c3c(c2c1)C(=O)N(CCN(C)C)C4=O | 7.09 | 7.17 |
| COc1ccc2cc3ccccc3c3c2c1C(=O)N(CCN(C)C)C3=O | 6.74 | 6.3 |
| COc1ccc2cc3cccc4c3c(c2c1)C(=O)N(CCN(C)C)C4=O | 7.28 | 7.11 |
| CN(C)CCN1C(=O)c2c(O)ccc3cc4ccccc4c(c23)C1=O | 5.12 | 4.83 |
| CN(C)CCN1C(=O)c2cccc3cc4cccc(O)c4c(c23)C1=O | 6.27 | 5.72 |
| COc1ccc2c3c4c(cccc4cc2c1)C(=O)N(CCN(C)C)C3=O | 6.79 | 6.27 |
| CN(C)CCN1C(=O)c2cccc3cc4ccccc4c(c23)C1=O [AZONAFIDE] | 7.15 | 7.24 |
